The source made the active and inactive calls.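 Rule for the calls: active = mean IC50 for reducing PEG3 promoter reporter signal at or below a set limit, with IC50 above the limit in both counter screens; inactive = the rest, including counter screen hits.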
Columns and labels:
PEG-3 [1] = target: PEG-3 (UniProt Q6IN02); experiment: inhibition of PEG-3 promoter-driven reporter – cell-based, HeLa, luciferase, CREF/GAPDH counter-screen panel, dose response (AID 624167); details: HeLa PEG-Prom luciferase reporter, overnight, CREF/GAPDH counter-screens, mean of runs
PEG-3 (UniProt Q6IN02), sequence (Q6IN02 whole entry, looked up): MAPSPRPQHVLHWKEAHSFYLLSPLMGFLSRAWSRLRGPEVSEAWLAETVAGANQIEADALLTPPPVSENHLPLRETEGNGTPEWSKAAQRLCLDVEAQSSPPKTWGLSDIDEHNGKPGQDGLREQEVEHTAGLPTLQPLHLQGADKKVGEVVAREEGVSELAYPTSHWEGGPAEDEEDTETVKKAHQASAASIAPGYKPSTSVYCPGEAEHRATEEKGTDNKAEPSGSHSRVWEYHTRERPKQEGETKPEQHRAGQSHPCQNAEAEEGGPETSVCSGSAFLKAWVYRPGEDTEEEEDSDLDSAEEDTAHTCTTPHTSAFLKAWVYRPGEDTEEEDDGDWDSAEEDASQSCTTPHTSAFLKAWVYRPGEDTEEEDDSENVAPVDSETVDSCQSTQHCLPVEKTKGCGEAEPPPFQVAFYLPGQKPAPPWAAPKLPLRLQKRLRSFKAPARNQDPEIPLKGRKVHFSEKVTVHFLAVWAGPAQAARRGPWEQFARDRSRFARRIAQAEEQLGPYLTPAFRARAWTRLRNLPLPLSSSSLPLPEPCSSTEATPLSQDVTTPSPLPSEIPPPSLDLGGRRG

PEG-3 [2] = experiment: as above; details: HeLa PEG-Prom luciferase reporter, overnight, CREF/GAPDH counter-screens
[3] = run 1, dose range 1, individual replicate IC50 per panel
[4] = run 2, dose range 1, individual replicate IC50 per panel

SMILES	IC50 (PEG-3 [1])	IC50 (PEG-3 [2]; [3])	IC50 (PEG-3 [2]; [4])
N=c1n(CCN2CCCC2)c2ccccc2n1CC(O)c1ccc(Cl)c(Cl)c1 (stereo not given)	13.4 µM	17.7 µM	9.03 µM
CC1(C)Oc2cc3oc(-c4cc(O)cc(O)c4)cc3cc2CC1O (stereo not given)	inactive	37.1 µM	13.7 µM
COC(=O)CSC1=NS(=O)(=O)c2ccccc21	inactive	> 100 µM	33.5 µM
CCC1=C(CC2NCCc3ccccc32)CC2c3cc(OC)c(OC)cc3CCN2C1 (stereo not given)	14.2 µM	15.1 µM	13.3 µM
Cc1ccc2sc(N(CCCN(C)C)C(=O)c3ccc(S(=O)(=O)N(C)Cc4ccccc4)cc3)nc2c1C	13.7 µM	19 µM	8.42 µM
O=C1CCC2S/C(=C/Nc3ccc(C(F)(F)F)cc3)C(=O)N12 (stereo not given)	inactive	6.39 µM	47.7 µM
CC(C)CC1C(=O)N(Cc2cn(CCC3OCCO3)nn2)CCS(=O)(=O)N1Cc1ccc(-c2ccc(F)cc2)cc1 (stereo not given)	inactive	31.3 µM	33.2 µM
CCCN1CCc2c(sc(NC(=O)c3ccc(S(=O)(=O)N4CCN(C(=O)OCC)CC4)cc3)c2C(N)=O)C1	inactive	21.9 µM	21.2 µM
OCCN1CCN(C2CCC(c3ccc(F)cc3)c3ccc(F)cc32)CC1 (stereo not given)	inactive	20.4 µM	23 µM
Cn1c(=O)c(C(=O)CCl)c(N)n(Cc2ccccc2)c1=O	inactive	28.6 µM	13.2 µM
COc1ccc(OC)c(-c2cc(C(=O)N3CCN(c4ncccn4)CC3)c3ccccc3n2)c1	inactive	35 µM	> 100 µM
CCCCN(C)CCNC(=O)c1cc(-c2cccnc2)nc2ccc(S(=O)(=O)N3CCC(C)CC3)cc12	12.9 µM	10.3 µM	15.4 µM
COc1ccc(-n2cc(CNC3CCN(C)CC3)c(-c3cccc(F)c3)n2)cc1	inactive	26 µM	15.3 µM
O=C(CN1CCCC1)Nc1ccc(-c2nc3cc(NC(=O)CN4CCCC4)ccc3o2)cc1	> 100 µM (inactive)	> 100 µM	> 100 µM
Oc1ccc(C[C@H]2CNCCN2CCc2cc(C(F)(F)F)cc(C(F)(F)F)c2)cc1	inactive	26.7 µM	19.8 µM
O=C(NC1CCCCC1)C(c1cccnc1)N(C(=O)CCl)c1cccc(Cl)c1 (stereo not given)	15.5 µM	17.6 µM	13.4 µM
CN(C)CCNc1ccc2ncn3c4ccc(O)cc4c(=O)c1c23	inactive	54 µM	< 0.2 µM
COc1ccc(-n2nnnc2C(C2CC2)N2CCC(n3c(=O)[nH]c4ccccc43)CC2)cc1 (stereo not given)	inactive	58.3 µM	14.7 µM
Cc1cccc(N=C2Sc3nc4c(C)c(C)ccc4cc3CN2CCN2CCOCC2)c1	inactive	29.3 µM	32 µM
CC1CCCC(C)N1C(=C(Cl)Cl)C(=C1SCCS1)[N+](=O)[O-] (stereo not given)	14 µM	11.5 µM	16.6 µM
CCCCNc1nc(=S)n(-c2ccccc2)c(C)c1C(C)=O	17.3 µM	22 µM	12.6 µM
CCCOc1ccc(NC(=O)CC2C(=O)N(CC)C(=S)N2CCCN2CCN(Cc3ccccc3)CC2)cc1 (stereo not given)	18.9 µM	20.6 µM	17.2 µM

SMILES	IC50 (PEG-3 [1])	IC50 (PEG-3 [2]; [3])	IC50 (PEG-3 [2]; [4])
COc1ccccc1N(C(=O)CCl)c1cn(C(C)=O)c2ccccc12	inactive	24.1 µM	26.5 µM
O=C(NC1=C(NC2CCS(=O)(=O)C2)C(=O)c2ccccc2C1=O)c1ccccc1 (stereo not given)	18.9 µM	19.1 µM	18.7 µM
CCN(CC)CCNC(=O)c1ccc(NC(=O)c2cccc(S(=O)(=O)N(C)C3CCCCC3)c2)cc1	inactive	29.1 µM	25.6 µM
CC1(C)CC(NC(=O)c2cccc(S(=O)(=O)N(Cc3ccccc3)c3ccccc3)c2)CC(C)(C)N1	18.8 µM	18.6 µM	18.9 µM
CC(=O)NC(c1ccccc1)c1cc(Cl)c2cccnc2c1O (stereo not given)	9.5 µM	6.33 µM	12.7 µM
CC(C)CC(N)c1csc(NC(=O)Nc2ccccc2C(C)C)n1 (stereo not given)	15.7 µM	30.1 µM	1.37 µM
CC(=O)c1c(NCCc2ccccc2)nc(=S)n(-c2ccccc2)c1C	13.8 µM	17.2 µM	10.3 µM
COc1ccc(CC(N)c2csc(NC(=O)Nc3ccccc3C(C)(C)C)n2)cc1 (stereo not given)	inactive	19.1 µM	31 µM
COc1cccc(/C=N/Nc2cc(C)nc(-c3ccccc3O)n2)c1O	13 µM	12.5 µM	13.6 µM
O=C(CCN1C(=O)/C(=C/c2cccs2)SC1=S)N1CCCCC1	inactive	24.6 µM	25.5 µM
CCN(CC)CCOc1ccc(/C(=C(/Cl)c2ccccc2)c2ccccc2)cc1	17 µM	22.4 µM	11.6 µM
O=Cc1cn(Cc2ccc([N+](=O)[O-])cc2)c2ccccc12	> 100 µM (inactive)	> 100 µM	> 100 µM
CC(C)CC(N)c1csc(Nc2ccc(C(=O)N(C)Cc3ccccc3)cn2)n1 (stereo not given)	inactive	14.2 µM	29 µM
Cc1ccc2sc(N(CCCN(C)C)C(=O)c3ccc(S(=O)(=O)N(C)C4CCCCC4)cc3)nc2c1C	17.2 µM	20.7 µM	13.7 µM
COc1ccc2sc(N(CCCN(C)C)C(=O)c3ccc(S(=O)(=O)N4CCCc5ccccc54)cc3)nc2c1	inactive	20.7 µM	21.8 µM
Cc1ccc(F)cc1-c1cc2nc(NCCCN(C)C)n(C)c(=O)c2s1	inactive	30.9 µM	59.5 µM
Cn1cccc1/C=C1/C(=O)NC(=S)N(Cc2ccc(F)cc2)C1=O	inactive	31.9 µM	38.1 µM
CS(=O)(=O)c1ccc(C(=O)NCCN2C(=O)S/C(=C\c3cccnc3)C2=O)cc1[N+](=O)[O-]	15 µM	17.3 µM	12.7 µM
CCCN(CC(=O)Nc1ccccc1C)C(=O)CCl	inactive	56.1 µM	> 100 µM
CC(=O)Nc1cccc(-c2ccnc3c2CC(C)(C(=O)Nc2cccc(OC(F)(F)F)c2)O3)c1 (stereo not given)	17.3 µM	8.81 µM	25.7 µM
COc1cc(/C=C/c2ccc3cccc(O)c3n2)ccc1O	> 100 µM (inactive)	> 100 µM	> 100 µM
CN1CCC(NC(=O)c2cc(-c3cccc(Br)c3)nc3ccccc23)CC1	18 µM	20.9 µM	15.1 µM

SMILES	IC50 (PEG-3 [1])	IC50 (PEG-3 [2]; [3])	IC50 (PEG-3 [2]; [4])
CCN(CC)CCSc1nnc2c3cc(C)ccc3n(Cc3ccccc3)c2n1	inactive	30.6 µM	93.6 µM
COc1ccc(OC)c(Cc2cnc3nc(N)nc(N)c3c2C)c1	inactive	48.7 µM	1.36 µM
Cc1nc(-c2ccc(F)cc2)c(CC(=O)N(C)CC(=O)Nc2ccc(Cl)c(C(F)(F)F)c2)s1	inactive	26 µM	33.8 µM
CCc1ccc(O)c(CNCCNCc2cc(CC)ccc2O)c1	18.5 µM	20.6 µM	16.4 µM
CN(C)CCc1cc2c(c3c1ccc1ccccc13)OCO2	14 µM	16.9 µM	11.2 µM
CCCN(CCC)CCCNC(=S)Nc1ccc2nc(N3CCCC3)cc(C)c2c1	inactive	27.5 µM	19.1 µM
CC1(C(=O)NCc2cccc3ccccc23)CCN1C(=O)Cc1ccc(-c2ccccc2)cc1 (stereo not given)	inactive	10.3 µM	> 100 µM
O=C1NC(Cc2ccc(O)cc2)c2nc3ccc(F)cc3c(=O)n2-c2cc3ccccc3cc21 (stereo not given)	inactive	19.9 µM	34.4 µM
Cc1ccc(C2=NC(=O)/C(=C/c3cc(O)c(O)c(Br)c3)S2)cc1	inactive	17.1 µM	27.1 µM
CC[C@@H](O)C[C@H]1CCC[C@@]2(C[C@@H]3OC(=O)/C=C/[C@@](C)(O)[C@@H](O)[C@H](C)[C@@H](O)[C@H](OC4CCC(N(C)C)C(C)O4)[C@@H](O)[C@](C)(O)CCCCC/C=C/[C@@H]4CC(C)(C)O[C@@]4(O)C[C@H](O2)[C@H]3C)O1 (stereo not given in full)	15.8 µM	18.2 µM	13.4 µM
COc1ccc(-n2c(/C=C/c3ccc(O)c(OC)c3)nc3ccccc3c2=O)cc1	15.8 µM	15.8 µM	15.8 µM
CCCCCCCCCC[N+](C)(C)CC/C=C1/c2ccccc2Sc2ccc(Cl)cc21	11.7 µM	14.9 µM	8.43 µM
COc1ccccc1NC(=O)Nc1nc(C(N)CCc2ccccc2)cs1 (stereo not given)	14.2 µM	12.2 µM	16.3 µM
N#Cc1c(N)nc(SCc2ccncc2)c(C#N)c1-c1cccs1	17.1 µM	21.4 µM	12.8 µM
C=C(C)Cn1c(SCC(=O)N/N=C/c2c(O)ccc3ccccc23)nc2ccccc2c1=O	> 100 µM (inactive)	> 100 µM	> 100 µM
c1cncc(-c2nc(NCC3COc4ccccc4O3)c3ccccc3n2)c1 (stereo not given)	inactive	20.1 µM	38.6 µM
CCOC(=O)c1cccc(Nc2nc(-c3cccnc3)nc3ccccc23)c1	11.8 µM	12.1 µM	11.4 µM
CN(C)CC1CCC/C(=C/c2ccc(Cl)cc2)C1=O (stereo not given)	11.1 µM	14.5 µM	7.74 µM
CC(C)CC(N)c1csc(Nc2ccc(C(=O)c3ccccc3)cc2)n1 (stereo not given)	inactive	31.1 µM	29.8 µM
COc1ccc(CC(=O)N(Cc2ccccc2)c2ccccc2)cc1S(=O)(=O)N1CCOCC1	inactive	50.5 µM	> 100 µM
O=Cc1cn(Cc2ccc(Br)cc2)c2ccccc12	inactive	43.8 µM	> 100 µM

From PubChem BioAssay AID624167 (Sanford-Burnham Center for Chemical Genomics, 2012)
